Reference: patent US8178658B2 (Dow AgroSciences, LLC, priority 2008, dated 2012)

Experiments:
[1] = tested on: beet armyworm (BAW; Spodoptera exigua: Lepidoptera); assay: 128-well diet tray assay on beet armyworm (BAW 50); type: in vivo; settings: 128-well diet tray assay, second instar BAW larvae, mortality class; for BAW 50 ug/cm2: 50 μg/cm^2 of test compound on diet; for pest or weed control at 50 µg/cm2, 50 µg/cm2: Spodoptera exigua, 144 h, 50 μg/cm2 of test compound on diet, read-out: BAW 50 ug/cm2
Outline: (§1)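 HTS: eggs on diet topped with 12 μg cpd/well; dark, 29° C; mortality day 6; mean of 6 reps. Tray: 3–5 L2 larvae/well; diet dosed 50 μg/cm^2; 25° C, 14:10 L:D; 6 d; mean of 8 wells. Scored as ≥50% mortality or not.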

[2] = tested on: beet armyworm (BAW; Spodoptera exigua: Lepidoptera); assay: 96-well microtiter plate-based high throughput (HTS) diet bioassay on beet armyworm (BAW HTS); type: in vivo; settings: BAW eggs, 12 μg test compound per well, mortality at 6 d post-treatment, mortality class; for pest or weed control at 12 µg/well, 12 µg/well: Spodoptera exigua, 144 h, read-out: BAW HTS
Outline: as §1

[3] = 96-well microtiter plate HTS diet assay

SMILES | BAW 50 ug/cm2 [1] | BAW HTS ([2]; 96-well HTS diet bioassay) | BAW HTS [2, 3] | pest or weed control at 50 µg/cm2, 50 µg/cm2 [1] [%] | pest or weed control at 12 µg/well, 12 µg/well ([2]; 96-well HTS diet bioassay) [%]
COC1C(C)OC(ON=Cc2ccc(-c3nn(-c4ccc(F)cc4F)c(=O)[nH]3)cc2)C(OC)C1OC (stereo not drawn) [Compound 100] | A (the compound was tested and at least 50 percent mortality was observed) | B (either (1) the compound was tested and less than 50 percent mortality was observed or (2) the compound was not tested) | B (either (1) the compound was tested and less than 50 percent mortality was observed or (2) the compound was not tested) |  | 
COC1C(C)OC(ON=Cc2ccc(-c3nn(-c4ccc(OC(F)(F)F)cc4)c(=O)[nH]3)cc2)C(OC)C1OC (stereo not drawn) [Compound 101] | A (the compound was tested and at least 50 percent mortality was observed) | B (either (1) the compound was tested and less than 50 percent mortality was observed or (2) the compound was not tested) | B (either (1) the compound was tested and less than 50 percent mortality was observed or (2) the compound was not tested) |  | 
COC1C(C)OC(ON=Cc2ccc(-c3ncn(-c4ccc(Br)cc4)n3)cc2)C(OC)C1OC (stereo not drawn) [Compound 102] | B (either (1) the compound was tested and less than 50 percent mortality was observed or (2) the compound was not tested) | B (either (1) the compound was tested and less than 50 percent mortality was observed or (2) the compound was not tested) | B (either (1) the compound was tested and less than 50 percent mortality was observed or (2) the compound was not tested) |  | 
CO[C@@H]1[C@@H](OC)[C@H](C)O[C@@H](ON=Cc2ccc(-c3ncn(-c4ccc([S+]([O-])C(F)(F)F)cc4)n3)cc2)[C@@H]1OC (stereo partly drawn) [Compound 103, 4-[1-(4-trifluoromethanesulfinylphenyl)-1H-[1,2,4]triazol-3-yl]-benzaldehyde O-((2S,3R,4R,5S,6S)-3,4,5-trimethoxy-6-methyl-tetrahydropyran-2-yl)-oxime] | A (the compound was tested and at least 50 percent mortality was observed) |  | B (either (1) the compound was tested and less than 50 percent mortality was observed or (2) the compound was not tested) | > 50 | < 50
CO[C@@H]1[C@@H](OC)[C@H](C)O[C@@H](ON=Cc2ccc(-c3ncn(-c4ccc(S(=O)(=O)C(F)(F)F)cc4)n3)cc2)[C@@H]1OC [Compound 104, 4-[1-(4-trifluoromethanesulfonylphenyl)-1H-[1,2,4]triazol-3-yl]-benzaldehyde O-((2S,3R,4R,5S,6S)-3,4,5-trimethoxy-6-methyl-tetrahydropyran-2-yl)-oxime] | A (the compound was tested and at least 50 percent mortality was observed) |  | B (either (1) the compound was tested and less than 50 percent mortality was observed or (2) the compound was not tested) | > 50 | < 50
COC1C(C)OC(ON=Cc2ccc(-c3ncn(-c4ccc(SC(F)(F)C(F)(F)F)cc4)n3)cc2)C(OC)C1OC (stereo not drawn) [Compound 105] | A (the compound was tested and at least 50 percent mortality was observed) | B (either (1) the compound was tested and less than 50 percent mortality was observed or (2) the compound was not tested) | B (either (1) the compound was tested and less than 50 percent mortality was observed or (2) the compound was not tested) |  | 
CCCOC1C(OC)C(C)OC(ON=Cc2ccc(-c3ncn(-c4ccc(OC(F)(F)C(F)(F)F)cc4)n3)cc2)C1OC (stereo not drawn) [Compound 106] | A (the compound was tested and at least 50 percent mortality was observed) | B (either (1) the compound was tested and less than 50 percent mortality was observed or (2) the compound was not tested) | B (either (1) the compound was tested and less than 50 percent mortality was observed or (2) the compound was not tested) |  | 
CCCOC1C(OC)C(C)OC(ON=Cc2ccc(-c3ncn(-c4ccc(C(F)(F)F)cc4)n3)cc2)C1OC (stereo not drawn) [Compound 107] | A (the compound was tested and at least 50 percent mortality was observed) | A (the compound was tested and at least 50 percent mortality was observed) | A (the compound was tested and at least 50 percent mortality was observed) |  | 
CCCOC1C(OC)C(C)OC(ON=Cc2ccc(-c3ncn(-c4ccc(C(F)(F)C(F)(F)F)cc4)n3)cc2)C1OC (stereo not drawn) [Compound 108] | A (the compound was tested and at least 50 percent mortality was observed) | B (either (1) the compound was tested and less than 50 percent mortality was observed or (2) the compound was not tested) | B (either (1) the compound was tested and less than 50 percent mortality was observed or (2) the compound was not tested) |  | 
CCCCOC1C(OC)C(C)OC(ON=Cc2ccc(-c3ncn(-c4ccc(OC(F)(F)C(F)(F)F)cc4)n3)cc2)C1OC (stereo not drawn) [Compound 109] | A (the compound was tested and at least 50 percent mortality was observed) | A (the compound was tested and at least 50 percent mortality was observed) | A (the compound was tested and at least 50 percent mortality was observed) |  | 
CCCOC1C(OC)C(C)OC(ON=Cc2ccc(-c3ncn(-c4ccc(C(F)(F)C(F)(F)C(F)(F)F)cc4)n3)cc2)C1OC (stereo not drawn) [Compound 110] | A (the compound was tested and at least 50 percent mortality was observed) | B (either (1) the compound was tested and less than 50 percent mortality was observed or (2) the compound was not tested) | B (either (1) the compound was tested and less than 50 percent mortality was observed or (2) the compound was not tested) |  | 
CCOC1C(OC)C(C)OC(ON=Cc2ccc(-c3ncn(-c4ccc(OS(=O)(=O)C(F)(F)F)cc4)n3)cc2)C1OC (stereo not drawn) [Compound 112] | A (the compound was tested and at least 50 percent mortality was observed) | B (either (1) the compound was tested and less than 50 percent mortality was observed or (2) the compound was not tested) | B (either (1) the compound was tested and less than 50 percent mortality was observed or (2) the compound was not tested) |  | 
CCCO[C@@H]1[C@@H](OC)[C@@H](OC)[C@H](O/N=C/c2ccc(-c3ncn(-c4ccc(OC(F)(F)C(F)(F)F)cc4)n3)cc2)O[C@H]1C [Compound 113, 4-[1-(4-pentafluoroethyloxy-phenyl)-1H-[1,2,4]triazol-3-yl]-benzaldehyde, O-((2S,3R,4R,5S,6S)-3,4-dimethoxy-6-methyl-5-propoxy-tetrahydropyran-2-yl)-oxime] | A (the compound was tested and at least 50 percent mortality was observed) |  | B (either (1) the compound was tested and less than 50 percent mortality was observed or (2) the compound was not tested) | > 50 | < 50
CCOC1C(OC)C(C)OC(ON=Cc2ccc(-c3ncn(-c4ccc(C(F)(F)F)cc4Cl)n3)cc2)C1OC (stereo not drawn) [Compound 115] | A (the compound was tested and at least 50 percent mortality was observed) | B (either (1) the compound was tested and less than 50 percent mortality was observed or (2) the compound was not tested) | B (either (1) the compound was tested and less than 50 percent mortality was observed or (2) the compound was not tested) |  | 
CCOC1C(OC)C(C)OC(ON=Cc2ccc(-c3ncn(-c4ccc(C(F)(F)F)cn4)n3)cc2)C1OC (stereo not drawn) [Compound 116] | A (the compound was tested and at least 50 percent mortality was observed) | B (either (1) the compound was tested and less than 50 percent mortality was observed or (2) the compound was not tested) | B (either (1) the compound was tested and less than 50 percent mortality was observed or (2) the compound was not tested) |  | 
CCOC1C(OC)C(C)OC(ON=Cc2ccc(-c3ncn(-c4ccc(Cl)nn4)n3)cc2)C1OC (stereo not drawn) [Compound 117] | B (either (1) the compound was tested and less than 50 percent mortality was observed or (2) the compound was not tested) | B (either (1) the compound was tested and less than 50 percent mortality was observed or (2) the compound was not tested) | B (either (1) the compound was tested and less than 50 percent mortality was observed or (2) the compound was not tested) |  | 
CCCOC1C(OC)C(C)OC(ON=Cc2ccc(-c3ncn(-c4ccc(C(F)(F)F)cn4)n3)cc2)C1OC (stereo not drawn) [Compound 118] | A (the compound was tested and at least 50 percent mortality was observed) | B (either (1) the compound was tested and less than 50 percent mortality was observed or (2) the compound was not tested) | B (either (1) the compound was tested and less than 50 percent mortality was observed or (2) the compound was not tested) |  | 
COCC1OC(ON=Cc2ccc(-c3ncn(-c4ccc(OC(F)(F)C(F)(F)F)cc4)n3)cc2)C(OC)C(OC)C1OC (stereo not drawn) [Compound 119] | A (the compound was tested and at least 50 percent mortality was observed) | A (the compound was tested and at least 50 percent mortality was observed) | A (the compound was tested and at least 50 percent mortality was observed) |  | 
CCOC1C(OC)C(C)OC(ON=Cc2ccc(-c3ncn(-c4ccc(OC(F)(F)F)cc4)n3)cc2)C1OC (stereo not drawn) [Compound 120] | A (the compound was tested and at least 50 percent mortality was observed) | A (the compound was tested and at least 50 percent mortality was observed) | A (the compound was tested and at least 50 percent mortality was observed) |  | 
